Experimental data: patent publication US7589100B2, “Non-hygroscopic and powdery amorphous pimecrolimus” (TEVA Gyógyszergyár Zártkörún Müködö Részvénytársaság, priority 2004, dated 2009)

Assay: Hygroscopicity: water content (LOD) of samples stored at different relative humidity for one week
Format: physicochemical
Description: As used herein, the term “non-hygroscopic” refers to a compound that contains no more than about 2% wt/wt of water, more preferably no more than about 1.5% wt/wt of water, most preferably no more than about 1% wt/wt of water, when exposed to 80% humidity, at room temperature for 1 week. The hygroscopicity of amorphous pimecrolimus of the present invention was examined by measuring the water content in samples stored at different relative humidity value (RH) (0, 40, 60, and 80 percent) for a period of one week.

CC[C@@H]1/C=C(\C)C[C@H](C)C[C@H](OC)[C@H]2O[C@@](O)(C(=O)C(=O)N3CCCC[C@H]3C(=O)O[C@H](/C(C)=C/[C@@H]3CC[C@H](Cl)[C@H](OC)C3)[C@H](C)[C@@H](O)CC1=O)[C@H](C)C[C@@H]2OC [Pimecrolimus, (1R,9S,12S,13R,14S,17R,18E,21 S,23S,24R,25S,27R)-12-[(1E)-2-{(1R,3R,4S)-4-chloro-3-methoxycyclohexyl}-1-methylvinyl]-17-ethyl-1,14-dihydroxy-23,25-dimethoxy-13,19,21,27-tetramethyl-11,28-dioxa-4-aza-tricyclo[22.3.1.0^4,9]octacos-18-ene-2,3,10,16-tetraone]
hygroscopicity (result in words) (RH 0 to 80 percent, one week): non-hygroscopic
LOD (%) (original sample, before storage): 1.1%
LOD (%) (stored at RH 0 % for one week): 0.8%
LOD (%) (stored at RH 40 % for one week): 1.1%
LOD (%) (stored at RH 60 % for one week): 1.1%
LOD (%) (stored at RH 80 % for one week): 1.1%
water content of the samples (stored at relative humidity from about 0 percent to about 80 percent, one week): about 1%
